Experimental data reported in patent US7666874B2, “Pyrimidylaminobenzamide derivatives for hypereosinophilic syndrome” (Novartis AG, priority 2005, dated 2010).

How the values were obtained:
Ba/F3 Tel-PDGFRβ cells = target: T1, Ba/F3 Tel-PDGFRβ cells (Homo sapiens, UniProt P09619); assay: IL-3 independence cell proliferation assay (ATPLite), Ba/F3 Tel-PDGFRβ; assay type: cell-based
T1 construct: TEL-PDGFRβ, TEL-PDGFRβ T681I, and TEL-FGFR3 [T/F] are cloned in MSCV-neomycin [MSCV-neo]; fused on or other part: P41212 (Transcription factor ETV6)
T1 sequence (P09619 whole entry, stated change not applied, the tested form may be a part): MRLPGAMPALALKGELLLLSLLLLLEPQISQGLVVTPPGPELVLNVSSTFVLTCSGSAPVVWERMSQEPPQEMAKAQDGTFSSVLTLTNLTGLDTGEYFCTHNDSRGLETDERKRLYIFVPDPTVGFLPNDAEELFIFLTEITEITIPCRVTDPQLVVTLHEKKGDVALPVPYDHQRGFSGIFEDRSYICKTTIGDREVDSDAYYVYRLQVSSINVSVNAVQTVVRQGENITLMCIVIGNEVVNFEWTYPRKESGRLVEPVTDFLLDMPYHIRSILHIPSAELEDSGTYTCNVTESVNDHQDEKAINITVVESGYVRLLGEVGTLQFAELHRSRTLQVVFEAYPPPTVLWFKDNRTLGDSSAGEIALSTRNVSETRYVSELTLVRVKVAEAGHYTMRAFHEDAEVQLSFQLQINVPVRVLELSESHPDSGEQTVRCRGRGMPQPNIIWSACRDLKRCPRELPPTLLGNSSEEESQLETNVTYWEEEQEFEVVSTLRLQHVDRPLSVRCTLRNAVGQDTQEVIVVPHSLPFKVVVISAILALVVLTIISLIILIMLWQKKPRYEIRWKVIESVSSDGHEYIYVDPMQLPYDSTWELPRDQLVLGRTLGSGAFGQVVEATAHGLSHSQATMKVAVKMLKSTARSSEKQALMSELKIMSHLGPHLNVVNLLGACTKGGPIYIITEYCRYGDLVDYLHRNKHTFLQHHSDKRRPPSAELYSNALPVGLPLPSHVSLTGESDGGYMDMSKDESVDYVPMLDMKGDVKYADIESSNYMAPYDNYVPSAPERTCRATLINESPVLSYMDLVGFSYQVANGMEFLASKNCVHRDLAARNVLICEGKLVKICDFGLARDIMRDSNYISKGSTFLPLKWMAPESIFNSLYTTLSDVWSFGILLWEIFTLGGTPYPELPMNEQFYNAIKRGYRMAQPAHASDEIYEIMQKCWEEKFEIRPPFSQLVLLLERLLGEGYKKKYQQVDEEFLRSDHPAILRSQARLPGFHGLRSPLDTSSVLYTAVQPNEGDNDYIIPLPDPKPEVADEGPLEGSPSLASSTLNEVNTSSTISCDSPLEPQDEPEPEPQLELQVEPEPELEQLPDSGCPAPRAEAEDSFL
Description: (§6) TEL-PDGFRβ [T/P], FIP1L1-PDGFRα [F/P], and FIP1L1-PDGFRα T6741 cloned in MSCV-IRES-GFP [MSCV-GFP], and TEL-PDGFRβ, TEL-PDGFRβ T681I, and TEL-FGFR3 [T/F] are cloned in MSCV-neomycin [MSCV-neo].
(§7) Ba/F3 cells are cultured in RPMI 1640 (RPMI)+10% FBS+1 ng/mL mouse interleukin (IL)-3. Retroviral supernatants are generated and used to transduce Ba/F3 cells. T/P MSCV-neo and T/F MSCV-neo cell lines are selected with 1 mg/mL G418 in the presence of IL-3 for 8-10 days. F/P MSCV-GFP cell lines are selected in RPMI lacking IL-3 for 7-10 days. […] Transformed Ba/F3 cells are grown in RPMI lacking IL-3.
(§8) The effects of compounds on viability and proliferation of the cells were determined using the luminescent ATP Detection assay kit ATPLite™ from Perkin Elmer Life Sciences (Cat. No: 6016947) according to the instructions of the suppliers. This assay system is based on the production of light (luminescence) caused by the reaction of ATP with added luciferase and D-luciferin. […]
(§9) The effect of the compound was expressed as percent reduction of the control signal. The TGI50 values were determined from the dose response curves by graphical extrapolation.

[1] = target: T2, Ba/F3 cells transformed by TEL-PDGFRβ T681I mutant (Homo sapiens, UniProt P09619, T681I); assay: Proliferation of Ba/F3 cells transformed by TEL-PDGFRβ T681I mutant; assay type: cell-based; conditions: Ba/F3 cells transformed with TEL-PDGFRβ T681I mutant
T2 construct: TEL (ETV6) portion (fusion partner); expressed in transfected cells; host or cells: Ba/F3 cells (retroviral transduction, MSCV-neo); the other entry of the earlier key: ETV6 (P41212, Transcription factor ETV6)
T2 sequence (P09619 554-1106 T681I limits assumed): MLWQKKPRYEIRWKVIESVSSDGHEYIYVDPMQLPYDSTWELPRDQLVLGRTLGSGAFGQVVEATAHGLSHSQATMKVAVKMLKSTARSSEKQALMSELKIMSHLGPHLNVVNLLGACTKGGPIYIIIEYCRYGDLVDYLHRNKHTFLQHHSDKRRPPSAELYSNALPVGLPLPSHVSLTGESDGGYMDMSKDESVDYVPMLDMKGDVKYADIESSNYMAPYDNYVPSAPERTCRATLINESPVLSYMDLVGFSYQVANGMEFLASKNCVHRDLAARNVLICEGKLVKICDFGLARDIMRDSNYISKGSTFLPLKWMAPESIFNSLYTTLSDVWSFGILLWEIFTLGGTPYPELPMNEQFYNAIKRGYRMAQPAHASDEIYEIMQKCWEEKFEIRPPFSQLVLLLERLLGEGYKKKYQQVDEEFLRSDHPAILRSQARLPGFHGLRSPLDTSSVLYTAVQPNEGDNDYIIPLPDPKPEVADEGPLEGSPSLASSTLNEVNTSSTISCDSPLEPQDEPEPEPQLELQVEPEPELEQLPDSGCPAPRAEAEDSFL
Description: as §6, §7, §8, §9

TEL-PDGFRβ [2] = assay: Western blot of TEL-PDGFRβ phosphorylation and signaling intermediates in Ba/F3 cells; assay type: cell-based
Description: For T/P: Ba/F3 cells stably expressing T/P or T/F are treated with serum starvation in plain RPMI 1640 for 4 hours prior to lysis. The cell extracts are clarified by centrifugation and used for immunoprecipitation or immunoblotting. The enzyme-linked immunoblotting procedures are performed as described. Applied antibodies include: rabbit anti-PDGFRβ serum (Pharmingen); rabbit anti-PI3K (p85) serum; mouse anti-phosphotyrosine 4G10 (Upstate Biotechnology); antibodies against FGFR3, phospho-PI3K p85 (Tyr-508) (Santa Cruz Biotechnology); PLCγ, phospho-PLCγ (Tyr-783) (Cell Signaling).

TEL-PDGFRβ [3] = assay: Murine bone marrow transplant model of TEL-PDGFRβ-induced myeloproliferative disease; assay type: in vivo, mouse (Balb/C); conditions: TEL-PDGFRβ transplanted mice
Description: (§1) Murine bone marrow transplant experiments are performed as previously described. MSCV-GFP retroviral supernatants are titered by transducing Ba/F3 cells with supernatant (plus polybrene, 10 μg/mL) and analyzing for the percentage of GFP+ cells by flow cytometry at 48 h post-transduction. Balb/C donor mice (Taconic) are treated for 5-6 days with 5-fluorouracil (150 mg/kg, intraperitoneal injection). Bone marrow cells from donor mice are harvested, treated with red blood cell lysis buffer, and cultured 24 h in transplant medium (RPMI+10% FBS+6 ng/mL IL-3, 10 ng/mL IL-6, and 10 ng/mL stem cell factor). Cells are treated by spin infection with retroviral supernatants (1 mL supernatant per 4×10^6 cells, plus polybrene) and centrifuged at 2500 rpm for 90 min. 24 h later, the spin infection is repeated, then cells are washed, resuspended in Hank's balanced salt solution, and injected into lateral tail veins of lethally irradiated (2×450 rad) Balb/C recipient mice (Taconic) at 0.5-1×10^6 cells/mouse. […] Animals are sacrificed when they had palpable splenomegaly or were moribund, or, if healthy, 7 days after sacrifice of the last animal in the placebo group.
(§2) Peripheral blood is collected from the retroorbital cavity using heparinized glass capillary tubes and analyzed by automated complete and differential blood cell counts and smears (stained with Wright and Giemsa). Single cell suspensions of spleen and bone marrow are prepared by pressing tissue through a cell strainer, followed by red blood cell lysis. Cells are frozen in 90% FBS, 10% DMSO.
(§3) For histopathology, tissues are fixed for at least 72 h in 10% neutral buffered formalin, dehydrated in alcohol, cleared in xylene, and infiltrated with paraffin on an automated processor (Leica). The tissue sections (4 μm) from paraffin-embedded tissue blocks are placed on charged slides and deparaffinized in xylene, rehydrated through graded alcohol solutions, and stained with hematoxylin and eosin.
(§4) For flow cytometry, cells are washed in PBS+1% bovine serum albumin (BSA), blocked with Fc-Block (BD Pharmingen) for 10 min on ice, and stained with monoclonal antibodies in PBS+1% BSA for 20 min on ice. Antibodies used are: allophycocyanin (APC)-conjugated Gr1, CD19, and TCRB; and phycoethrin (PE)-conjugated Mac-1, B220, and CD3 (BD Pharmingen). Flow cytometric analysis is performed on a FACSCalibur instrument and analyzed with CellQuest software. Viability is assessed by incubating cells with 7AAD (BD Pharmingen) for 5 min prior to flow cytometry. Cells are gated for viability (using forward/side scatter and 7AAD) and GFP positivity, and 10,000 events are analyzed from this subset for marker expression.
Statistical significance of differences between Compound (II)- and placebo-treated groups in survival time, white blood cell counts, and spleen weights are assessed using a two-sided Mann-Whitney U-test (Wilcoxon rank sum test).
A murine bone marrow transplant protocol is used to model myeloproliferative disease caused by TEL-PDGFRβ and FIP1L1-PDGFRα. Retroviral transduction of these fusion kinases into bone marrow cells of 5FU-treated donor mice, followed by transplantation into lethally irradiated recipients, produces a rapidly fatal myeloproliferative phenotype characterized by leukocytosis with myeloid predominance, splenomegaly, and extramedullary hematopoiesis.
(§5) Donor bone marrow cells are transduced with a murine retroviral vector expressing TEL-PDGFRβ or FIP1L1-PDGFRα and transplanted into recipients.

FIP1L1-PDGFRα = target: T3, FIP1L1-PDGFRα (Homo sapiens, UniProt P16234); assay: Murine bone marrow transplant model of FIP1L1-PDGFRα-induced myeloproliferative disease; assay type: in vivo, mouse (Balb/C); conditions: FIP1L1-PDGFRα transplanted mice
T3 construct: FIP1L1 portion (fusion partner); expressed in transfected cells; host or cells: Balb/C mouse donor bone marrow cells (retroviral transduction, MSCV-GFP), transplanted into Balb/C recipients; the other entry of the earlier key: FIP1L1 (Q6UN15, Pre-mRNA 3'-end-processing factor FIP1)
T3 sequence (P16234 593-1089 limits assumed): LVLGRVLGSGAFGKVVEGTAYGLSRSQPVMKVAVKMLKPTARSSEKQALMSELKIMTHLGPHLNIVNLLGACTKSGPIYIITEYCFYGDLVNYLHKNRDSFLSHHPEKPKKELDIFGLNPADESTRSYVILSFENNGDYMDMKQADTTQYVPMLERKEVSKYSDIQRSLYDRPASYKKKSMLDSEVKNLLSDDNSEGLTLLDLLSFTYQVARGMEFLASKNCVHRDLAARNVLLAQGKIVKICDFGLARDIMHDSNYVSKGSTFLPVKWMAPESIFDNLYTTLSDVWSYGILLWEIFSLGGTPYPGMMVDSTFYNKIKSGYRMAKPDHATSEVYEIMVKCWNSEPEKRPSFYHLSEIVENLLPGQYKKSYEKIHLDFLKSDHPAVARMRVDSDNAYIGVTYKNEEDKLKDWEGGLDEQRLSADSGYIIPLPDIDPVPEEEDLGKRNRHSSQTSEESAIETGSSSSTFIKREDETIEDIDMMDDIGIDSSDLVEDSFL
Description: as §1, §2, §3, §4
A murine bone marrow transplant protocol is used to model myeloproliferative disease caused by TEL-PDGFRβ and FIP1L1-PDGFRα.
as §5

[4] = daily oral gavage 150 mg/kg/day from day 11
[5] = daily oral gavage 150 mg/kg/day from day 11 after transplant

For `Cc1cn(-c2cc(NC(=O)c3ccc(C)c(Nc4nccc(-c5cccnc5)n4)c3)cc(C(F)(F)F)c2)cn1` [Compound (II), 4-methyl-3-[[4-(3-pyridinyl)-2-pyrimidinyl]amino]-N-[5-(4-methyl-1H-imidazol-1-yl)-3-(trifluoromethyl)phenyl] benzamide], the GI50 (Ba/F3 Tel-PDGFRβ cells; Ba/F3 Tel-PDGFRβ cells, 70 h incubation, read-out: IC50, inhibition of proliferation) was less than 100 nM, the “Inhibition of transformed Ba/F3 cells” value (Ba/F3 Tel-PDGFRβ cells; Ba/F3 cells transformed with TEL-PDGFRβ) was “inhibited” and the “Inhibition of transformed Ba/F3 cells” value [1] was “inhibited”. The “Phosphorylation of PDGFRβ signaling intermediates including PLCγ and PI3K” value (TEL-PDGFRβ [2]) was “effectively inhibited”, the “TEL-PDGFRβ tyrosine autophosphorylation” value (TEL-PDGFRβ [2]) was “effectively inhibited” and the “FACS analysis of spleen, B220+/CD19+ cells” value (TEL-PDGFRβ [3]; compared to placebo) was “slightly increased percentage”. For the same molecule, the “FACS analysis of spleen, Gr1+/Mac1+ cells” value (TEL-PDGFRβ [3]; compared to placebo) was “consistently reduced percentage”, the “Histopathology of hematopoietic organs” value (TEL-PDGFRβ [3]; compared to placebo) was “significantly less severe myeloproliferative disease” and the “Liver weight, Mean” value (TEL-PDGFRβ [3]; [4]) was 1492.5 mg. For the same molecule, the “Liver weight, Median” value (TEL-PDGFRβ [3]; [4]) was 1535 mg, the “Liver weight, Range” value (TEL-PDGFRβ [3]; [4]) was 1320 to 1590 mg and the “Spleen weight, Mean” value (TEL-PDGFRβ [3]; [4]) was 350.0 mg. The “Spleen weight, Median” value (TEL-PDGFRβ [3]; [4]) was 340 mg, the “Spleen weight, Range” value (TEL-PDGFRβ [3]; [4]) was 250 to 470 mg and the “WBC, Median” value (TEL-PDGFRβ [3]; [4]) was 1.59e+07 mL⁻¹. The “WBC, Range” value (TEL-PDGFRβ [3]; [4]) was 10.9-33.5 ×10^6/mL, the “WBC, Mean” value (TEL-PDGFRβ [3]; [5]) was 1.86e+07 mL⁻¹ and the Survival (TEL-PDGFRβ [3]; placebo median latency 17 days, p<0.001) was 26 days. For the same molecule, the “Total white blood cells (WBC)” value (TEL-PDGFRβ [3]; vs 563.7 for placebo, p<0.05) was 18.6 ×10^6 cells/mL, the “Extramedullary hematopoiesis in liver” value (FIP1L1-PDGFRα; compared to placebo) was “notable absence of any extramedullary hematopoiesis” and the “Histopathology of spleen” value (FIP1L1-PDGFRα; compared to placebo) was “striking preservation of normal splenic architecture”. For the same molecule, the “Liver weight, Mean” value (FIP1L1-PDGFRα; [4]) was 1128.0 mg, the “Liver weight, Median” value (FIP1L1-PDGFRα; [4]) was 1090 mg and the “Liver weight, Range” value (FIP1L1-PDGFRα; [4]) was 1080 to 1290 mg. For the same molecule, the “Spleen weight, Mean” value (FIP1L1-PDGFRα; [4]) was 88.0 mg, the “Spleen weight, Median” value (FIP1L1-PDGFRα; [4]) was 100 mg and the “Spleen weight, Range” value (FIP1L1-PDGFRα; [4]) was 50 to 100 mg. For the same molecule, the “WBC, Median” value (FIP1L1-PDGFRα; [4]) was 4.7e+06 mL⁻¹, the “WBC, Range” value (FIP1L1-PDGFRα; [4]) was 4.0-9.6 ×10^6/mL and the “WBC, Mean” value (FIP1L1-PDGFRα; [5]) was 5.6e+06 mL⁻¹. For the same molecule, the “Survival: all treated animals alive and healthy until study termination” value (FIP1L1-PDGFRα; all placebo animals lost by day 24) was no less than 33 days and the “Total WBC” value (FIP1L1-PDGFRα; vs 569.7 for placebo, p<0.01) was 5.6 ×10^6 cells/mL.
